Source: patent US10555989B2, “Treatment of learning disabilities and other neurological disorders with SK channel inhibitor(s)” (priority 2015, dated 2020)

Assays:
[1] = tested on: CD-1 mice
Experimental: Pregnant mice CD-1 mice purchased from Charles River Company and bred under a light-dark cycle at a constant temperature were injected i.p. with 2 g/kg with either PBS (control) or ethanol (EtOH) thus exposing fetal mice in utero to PBS or EtOH. Thirty days after mice were born (day P30) motor skills of the control and EtOH-treated groups were compared using Rotarod test. The treatment timeline for the mice is shown in FIG. 1A and the Rotarod test is depicted by FIG. 1B.
For assessment of motor learning behavior, mice (P30) were carried out using an accelerating Rotarod apparatus (TSE Instruments) over 3 repeated trials (5 minutes per trial)/day for 2 consecutive days before testing phase. The Rotarod testing involves placing the mice on a rotating bar and determining the length of time that they can retain their balance as the rate of rotation is increased (max 80 rpm, for 5 min). On the day of testing, mice were kept in their home cages and acclimated to the testing room for at least 15 min. 2 min acclimation session at 2 rpm one time prior to the test phase was performed. Testing phase consisted of 3 trials per day separated by 30 min each for 2 consecutive days (total 6 trials). Each trail was terminated when mouse fell off or reached maximum 5 min (maximum speed). During the trials, mice that moved 180° (same direction of rotation) were gently turned around, face forward, to opposite direction of rotation. The latency to fall from a rotating rod was scored automatically with infrared sensors in a Rotamex 5 rotarod (Columbus Inst.; Columbus, Ohio).

[2] = tested on: heat shock factor 1 (Hsf1); conditions: alcohol regimen i.p. at E16.5 and E17.5
Experimental: In utero electroporation was carried out as described [1-3]. Briefly, the plasmid for Flippase-FRT based reporter of heat shock factor 1 (Hsf1) activation was co-electroporated with EGFP-f plasmid (Addgene, 2 μg/μl each).
By using this method, the cells that had robust prenatal Hsf1 activation were labeled by RFP reporter.
The RFP reporter expression was induced upon Hsf1 activation in a subset of GFP-positive neurons. […] Pups were screened using an epifluorescence stereomicroscope at postnatal days (P1) that had GFP-positive cells in their primary motor cortex. Further experiments were performed on these mice i.e., single cell sampling, electrophysiology study, immunohistochemistry (IHC) and neurons morphology at P30.

[3] = tested on: mice exposed to EtOH prenatally; assay: Accelerating Rotarod motor learning before and after Tamapin injection (i.p.) in mice exposed to EtOH prenatally; format: in vivo, CD-1 mice
Experimental: Mice were tested using the Rotarod test described above on postnatal days 30, 31, 32 and 33 days as shown by the timeline in FIG. 5A. Thus, the mice were tested for the motor learning before and after the Tamapin injection (i.p.).

[4] = molecular target: T1, KCNN2 (Mus musculus, UniProt P58390); assay: Electrophysiology: tamapin-sensitive medium afterhyperpolarization (mAHP) in primary motor cortex slices; format: cell-based, mice; conditions: Tamapin 100 nM
T1 construct: Coronal slices containing primary motor cortex (300 μm) were prepared; from tissue; host or cells: acute coronal slices of primary motor cortex from P30 mice, layer II/III pyramidal neurons
T1 sequence (P58390 266-839): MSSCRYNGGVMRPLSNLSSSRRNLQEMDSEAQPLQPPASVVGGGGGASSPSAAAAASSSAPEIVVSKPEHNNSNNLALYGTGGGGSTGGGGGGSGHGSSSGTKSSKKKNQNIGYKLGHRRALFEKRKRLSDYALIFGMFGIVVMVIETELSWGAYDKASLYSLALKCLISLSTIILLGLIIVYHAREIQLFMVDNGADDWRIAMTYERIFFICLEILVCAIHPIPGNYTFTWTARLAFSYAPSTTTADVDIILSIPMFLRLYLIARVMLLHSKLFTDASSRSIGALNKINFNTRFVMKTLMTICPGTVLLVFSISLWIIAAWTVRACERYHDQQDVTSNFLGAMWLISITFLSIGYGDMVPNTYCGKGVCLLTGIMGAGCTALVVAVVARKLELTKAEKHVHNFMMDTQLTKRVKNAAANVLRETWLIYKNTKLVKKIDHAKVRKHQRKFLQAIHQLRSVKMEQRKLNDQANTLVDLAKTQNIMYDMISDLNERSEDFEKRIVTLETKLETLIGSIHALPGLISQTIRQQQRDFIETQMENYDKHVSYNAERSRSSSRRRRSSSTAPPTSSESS
Experimental: Electrophysiology: Coronal slices containing primary motor cortex (300 μm) were prepared as described above by using a vibrating blade microtome (Leica VT 1000S) from DNA (HSE-FLP0, CAG GFP and RFP FRT, 2 μg/μl each) electroporated mice (P30) brain. The recording chamber was perfused with oxygenated (95% O2/5% CO2) aCSF at 2 ml/min at room temperature. DNA electroporated primary motor cortex neurons were visualized through an infrared charge-coupled device (CCD) camera (C2741-79; Hamamatsu Photonics, Hamamatsu, Japan). The electrodes were filled with internal solution containing (in mM) 130 […], 10 KCl, 10 HEPES, 10 EGTA, 2 MgCl2, 2 Na2-ATP and 0.3 Na-GTP (pH 7.3; electrode resistances: 4-6 MΩ). Cells were recorded in the whole-cell voltage or current clamp mode with a holding potential of −60 mV using a patch-clamp amplifier (700B; Molecular Devices, Sunnyvale, Calif. USA). Series resistance was compensated. The output of the amplifier was digitized using an A/D converter board (Digidata 1322; Molecular Devices) with a sampling rate of 10 kHz, and recorded on a hard disk by data acquisition software (pCLAMP10; Molecular Devices). For the mAHP, cells were held at −60 mV under current clamp mode and action potentials were evoked through injecting positive current. LTP was induced electrically under voltage clamp mode by applying single 1-sec train (100 Hz, 100 μA, Isoflexm, A.M.P.I; CPI, Carl Pisaturo Standord University).
Example 4 KCNN2 Antagonist, Tamapin (100 nM), Affects the Medium Duration Afterhyperpolarization (mAHP) in Reporter-Positive Pyramidal Neurons in M1
(FIGS. 4A-4C, panels a4-c4) Left panels: Cumulative distributions of the amplitude of action potential and the mean amplitude of action potentials (insets)recorded from control (black)- and Tamapin (red)-stimulated neurons. Right panels: Firing frequencies, showing significant increase in RFP^+ neurons. *P=0.016 by Student's t-test.

[5] = tested on: SK2 channels; conditions: cited from earlier work

CCO [EtOH, ethanol]
learning and motor skills ([1]; exposure of fetal mice in utero vs control, summary of Example 1): negatively affects
initial motor coordination (terminal speed at trial 1, FIG. 1D) ([1]; in utero EtOH vs PBS, P30, P=0.579): not affected
learning rates (learning index, Rotarod, FIG. 1C) ([1]; in utero exposure, 2 g/kg i.p. to pregnant mice, P30, males and females, vs PBS): decreased
mean Rotarod terminal speed of control mice relative to EtOH-treated mice (FIG. 1F) ([1]; trial 1 and trial 6): significantly higher
effects in brain structure [2]: did not induce any obvious effects

AFCNLRRCELSCRSLGLLGKCIGEECKCVPY [Tamapin]
initial motor coordination (FIG. 5C) ([3]; EtOH-exposed mice): not affected
motor learning (latency to fall, FIG. 5B) ([3]; EtOH-exposed mice, trial 7-12, Tamapin i.p. vs vehicle, P=0.0001): improved the motor learning
latency to fall at the first trial followed by injection (trial 7), vehicle vs Tamapin ([3]; PBS-exposed and EtOH-exposed groups, P=0.302 and 0.960): similar
initial motor coordination (FIG. 5F) ([3]; PBS-exposed mice): not affected
effects on motor learning (FIG. 5G) ([3]; PBS-exposed mice, trial 7-12, P=0.596): No effects
motor learning / learning rate (FIG. 5D) ([3]; Tamapin-injected EtOH-exposed mice, trial 7-12, P=0.015): rescued
effects of fetal exposure to EtOH ([3]; summary of Example 5): significantly reversed
firing frequency ([4]; EtOH-exposed RFP+ neurons, P=0.016): increased the firing frequency
medium afterhyperpolarization (mAHP) ([4]; EtOH-exposed RFP+ pyramidal neurons, M1, P30 slices, P=0.009): reduced the mAHP
effects on mAHP and firing in RFP- neurons ([4]; RFP- neurons in PBS- or EtOH-exposed brains): no significant effects
rank order of affinity for SK channels ([5]; functional property of native tamapin): SK2 channel>SK3>SK1>SK4
SK channel selectivity ([5]; known property): selective blocker of SK2 channels
